According to patent publication US9359404B2, “Methods and products for treating preeclampsia and modulating blood pressure” (Scott & White Healthcare, priority 2011, dated 2016):
Ends that are not written are not given here.

Experiments:
[1] = test system: splenic CLIP+γδ T and B cells; experiment: Splenic CLIP+ γδ T cells and B cells after TLR3 or TLR7 activation in pregnant mice (flow cytometry); type: in vivo; conditions: for splenic CLIP+γδ T cells: pregnant mice treated with TLR agonist versus vehicle-treated pregnant controls
Excerpt: Next, it was important to determine whether this effect also happens in vivo. Therefore, we tested whether TLR activation via TLR3 or TLR7, which cause PE in mice only if they are pregnant, increases splenic CLIP+γδ T and B cells in mice.
It was shown that MHC class II engagement, in the absence of antigen receptor engagement, can lead to the death of APCs including B cells. Since TLR-mediated activation of B cells results in ectopic CLIP expression (FIGS. 11 and 12) we sought to determine whether CLIP serves as a negative regulator of B cell death. To test this mouse splenic B cells from C57B16 mice or CLIP KO mice were activated, with or without a TLR agonist, for 48 hrs. […] Splenocytes were analyzed by flow cytometry.

[2] = test system: Aortic rings; experiment: Vasodilation/endothelial function of aortic rings (isometric force transducer); type: in vivo; conditions: vessels of TLR agonist-treated pregnant mice, phenylephrine contraction, acetylcholine relaxation
Method: Experimental Design: Mice were treated as described in Example 1.
Vasodilation/Endothelial Function: Aortic rings were connected to an isometric force transducer in a custom-made 15-ml organ chamber filled with 37° C. physiological salt solution (119 mM NaCl, 4.7 mM KCl, 25 mM NaHCO3, 1.18 mM KH2PO4, 1.17 mM MgSO4-7H2O, 11.1 mM Dextrose, 2.5 mM CaCl2) with 95% O2-5% CO2. All experiments were performed in the presence of indomethacin […] to inhibit prostacyclin production by cyclooxygenase. Passive tension on the vessels was set at 400 mg based on previously generated length-tension curves, and isometric force generation was recorded continuously with a PowerLab system (AD Instruments, Colorado Springs, Colo.). After a 60-min equilibration period, vessels were contracted with phenylephrine […] and repeated until reproducible contractions were obtained. […] was administered to test the functional integrity of endothelium as measured by a relaxation response. Concentration-response curves were obtained in a half-log, cumulative fashion in response to acetylcholine (1 nM to […]) following contraction to an EC70 concentration of phenylephrine. Relaxation responses were expressed as percent relaxation from phenylephrine-induced contraction. […]

[3] = test system: pregnant mice; experiment: Systolic blood pressure (tail-cuff plethysmography) in pregnant mice given TLR agonists with or without TPP; type: in vivo, C57BL/6 mice; conditions: pregnant mice treated with TLR agonist alone, day 17
Method: (§1) Experimental Design: C57BL/6 female mice were bred with male C57BL/6 mice. At day 13 mice were injected IP with vehicle, Poly I:C (SIGMA PO913 50 mg), CLO097 (Invivogen tlrl-C95-5), or R837 (Invivogen tlrl imq) with or without TPP (FRIMAVLAS (SEQ ID NO: 5). Mice were injected a total of 3 times, every other day. At day 18 mice were euthanized, uterus/pups, blood, blood vessels, and spleen were removed.
Blood Pressure: Systolic arterial blood pressure was measured by tail-cuff plethysmography. […] were trained for three days prior to data collection. Animals were warmed to 32° C. and measurements were taken using an IITC Model 59 amplifier (Woodland Hills, Calif.), a system which correlates well with telemetry measurements of systolic blood pressure.
Pregnant mice (P) were treated with one of three TLR agonists to induce a physiological condition which mimics preeclampsia. Poly I:C is a TLR3 agonist and is well established in inducing characteristics of preeclampsia in mice. R837 is a […] activator of TLR7 but not TLR8. Similar to Poly I:C R837 induces characteristics of preeclampsia in mice. CLO097 is a […] that activates TLR7 and TLR8. While CLO097 induces some of the characteristics of preeclampsia the response is somewhat muted. […] The blood pressure of each mouse was measured on day 17 following treatment.

[4] = test system: pregnant mice; experiment: Total number of pups and malformed pups at day 18; type: in vivo, C57BL/6 mice; conditions: day 18, versus normal pregnancies or pregnancies treated with TLR agonists
Method: as §1
The number of pups and malformed pups was relatively consistent across all groups at this time point.

[5] = test system: pregnant mice with PE induced by TLR3 or TLR7 activation; experiment: Prevention of TLR3/TLR7-induced PE in pregnant mice, daily TPP gestational days 13-17; type: in vivo
Excerpt: FIG. 14 is a series of graphs depicting results from the daily administration of the CLIP-displacing peptide TPP. Daily administration of the CLIP-displacing peptide TPP (“Pep”-gestational days 13-17) prevented the development of hypertension, endothelial dysfunction, proteinuria, fetal demise, increased γδT cells, and decreased regulatory T cells in pregnant (P) mice treated with the TLR7 agonist R837 (PR mice) or the TLR3 agonist poly I:C (PPIC mice) on gestational days 13, 15, and 17.
TPP was utilized to displace CLIP on immune cells in mice during pregnancy.

[6] = test system: CLIP on the surface of B220 cells; experiment: Immune cell markers on splenocytes: CLIP on B220 cells; type: in vivo; conditions: pregnant mice, Poly I:C alone
Method: Experimental Design: Mice were treated as described in Example 1. Splenocytes were isolated and stained for CD3, CD4, CD8, CD11b, Ly6G/C, CD25, FoxP3, CD19, B220, CD5, CLIP, and Gamma Delta TCR.
FIG. 9 is a set of graphs that depicts the removal of all CLIP (9A) versus bright CLIP (9B) and FIG. 9C from the surface of B220 cells. […] TLR agonists include CLO097; R837, and Poly I:C. FIG. 9C depicts the percentage of CLIP+cells resulting from Poly I:C stimulation with and without TPP.

Row | Compound | splenic CLIP+γδ T cells [1] | relaxation response [2] | blood pressure [3] | number of malformed pups [4] | total number of pups [4] | safety, side effects on the mother or the pups [5] | CLIP+ B cells [6] | B cell death (splenic B cells) ([1]; PE mice versus normal pregnancy)
1 | CC(C)Cn1cnc2c(N)nc3ccccc3c21 [R837] | increased significantly | relaxation response is delayed | significantly increased blood pressure | – | – | – | – | –
2 | FRIMAVLAS [TPP, FRIMAVLAS] | – | – | – | caused no increase | caused no increase | safe in mice and has no side effects on the mother or the pups | – | –
3 | Poly I:C | increased significantly | relaxation response is delayed | significantly increased blood pressure | – | – | – | significant increase | did not experience the increase in B cell death
